Measurements: article PMC10398856 (ACS Omega, 2023)

What was measured:
SARS-CoV-2 = experiment: microbe, parasite or virus in culture; format: cell-based; conditions: for EC50: Severe acute respiratory syndrome coronavirus 2, 48 h, read-out: EC50, antiviral effect on SARS-CoV-2
[1] = tested on: human coronavirus 229E (HCoV-229E); experiment: microbe, parasite or virus in culture; format: cell-based; conditions: for IC50: Human coronavirus 229E, A549, read-out: IC50, antiviral effect on HCoV-229E
in vivo [2] = conditions: female, Wistar Albino, rat, po
in vivo [3] = conditions: male, Wistar Albino, rat, po, 10 mg/kg
[4] = rat, in vivo
[5] = 1 μM, 30 min, 37 °C

SMILES | EC50 (SARS-CoV-2) [µM] | IC50 [1] [µM] | selectivity index, SARS-CoV-2 (SARS-CoV-2) | other results
O=c1cc(OCCOc2ccnc(SCc3ccc(F)cc3)n2)c2ccccc2o1 [5a, 4-(2-((2-((4-Fluorobenzyl)thio)pyrimidin-4-yl)oxy)ethoxy)-2H-chromen-2-one] | > 50 | > 25 | – | –
O=c1cc(OCCCOc2ccnc(SCc3ccc(F)cc3)n2)c2ccccc2o1 [5b, 4-(3-((2-((4-Fluorobenzyl)thio)pyrimidin-4-yl)oxy)propoxy)-2H-chromen-2-one] | > 50 | > 25 | – | –
O=c1cc(OCCOc2ccnc(SCc3ccc(F)cc3)n2)c2cc(F)ccc2o1 [5c, 6-Fluoro-4-(2-((2-((4-fluorobenzyl)thio)pyrimidin-4-yl)oxy)ethoxy)-2H-chromen-2-one] | > 50 | > 25 | – | –
O=c1cc(OCCCOc2ccnc(SCc3ccc(F)cc3)n2)c2cc(F)ccc2o1 [5d, 6-Fluoro-4-(3-((2-((4-fluorobenzyl)thio)pyrimidin-4-yl)oxy)propoxy)-2H-chromen-2-one] | 14.3 ± 0.14 | 15.4 | – | LD50 (in vivo [2]): 500 to 1000 mg/kg; Cmax (in vivo [3]): 220 ng/mL; half-life (in vivo [3]): 73.3 h; GHS classification category ([4]; female, Wistar Albino): Category-4; clinical signs of toxicity and gross pathological changes ([4]; po, 300 mg/kg): no signs of toxicity
Cc1cccc(CSc2nccc(OCCOc3cc(=O)oc4ccccc34)n2)c1 [5e, 4-(2-((2-((3-Methylbenzyl)thio)pyrimidin-4-yl)oxy)ethoxy)-2H-chromen-2-one] | 6.59 ± 0.28 | 24.4 | 11.4 | selectivity index, HCoV-229E [1]: 3.06; metabolic stability against rat liver microsomes [5]: showed metabolic stability; metabolic stability against human liver microsomes (1 μM, 30 min, 37 °C): showed metabolic stability; compound found to be stable in human liver microsomes (human): > 50%
Cc1cccc(CSc2nccc(OCCCOc3cc(=O)oc4ccccc34)n2)c1 [5f, 4-(3-((2-((3-Methylbenzyl)thio)pyrimidin-4-yl)oxy)propoxy)-2H-chromen-2-one] | > 50 | > 25 | <1 | –
Cc1cccc(CSc2nccc(OCCOc3cc(=O)oc4ccc(F)cc34)n2)c1 [5g, 6-Fluoro-4-(2-((2-((3-methylbenzyl)thio)pyrimidin-4-yl)oxy)ethoxy)-2H-chromen-2-one] | > 50 | > 25 | – | –
Cc1cccc(CSc2nccc(OCCCOc3cc(=O)oc4ccc(F)cc34)n2)c1 [5h, 6-Fluoro-4-(3-((2-((3-methylbenzyl)thio)pyrimidin-4-yl)oxy)propoxy)-2H-chromen-2-one] | > 50 | > 25 | – | –
O=c1cc(OCCOc2ccnc(SCc3ccc(Cl)cc3)n2)c2ccccc2o1 [5i, 4-(2-((2-((4-Chlorobenzyl)thio)pyrimidin-4-yl)oxy)ethoxy)-2H-chromen-2-one] | > 50 | > 25 | <1 | –
